In patent publication US6777387B2, “Terminally-branched polymeric linkers containing extension moieties and polymeric conjugates containing the same” (Enzon Pharmaceuticals, Inc., priority 2000, dated 2004):

Assays:
[1] = tested on: human non-small cell lung carcinoma (LX-1); test: Efficacy against subcutaneous LX-1 xenograft in nude mice; type: in vivo; settings: i.v.; for T/C(%) at Day 14: median tumor volume treated vs control when control ~1000 mm^3; for T/C (%) at Day 21: median tumor volume treated vs control when control ~2000 mm^3
Protocol: ^13C NMR spectra were obtained at 67.80 MHz on the JNM GSX-270 or 75.46 MHz on the Varian MercuryVX-300. Chemical shifts (δ) are reported in parts per million (ppm) downfield from tetramethylsilane (TMS) and coupling constants (J values) are given in hertz (Hz). All PEG conjugated compounds were dissolved (˜15 mg/mL) in sterile saline (0.9%) for injection prior to in vivo drug treatments and were given as their ara-C equivalents (absolute amount of ara-C given).
Athymic nude mice were implanted subcutaneous with a 4-5 mm^3 tissue fragment of LX-1 collected from donor mice. The tumor trocar site was observed twice weekly and measured once palpable. The tumor volume for each mouse was determined by measuring two dimensions with calipers and calculated using the formula: tumor volume=(length×width^2)/2. […] The mice were sorted to evenly distribute tumor size, grouped into 4 to 6 mice/group, and ear punched for permanent identification. Drugs were administered intravenously q3d×4 (Day 1, 4, 7 and 10) via the tail vein at an approximate rate of 0.5 mL per minute. Compounds were given both at an equal molar basis (absolute amount of active) of 20 mg/kg and at close their respective MTD (Ara-C, 100 mg/kg/dose (toxicity); PEG-AraC, 40 to 60 mg/kg/dose (volume). Mouse weight and tumor size were measured at the beginning of study and twice weekly through week 4. Drug effectiveness was determined by comparing tumor growth in treated versus untreated (no vehicle) control mice. Five types of endpoints were used as the basis for comparison: (a) mean tumor volumes at Day 28; (b) mean percent change in individual tumor volumes from initial; (c) percent difference in tumor volume (%T/C), measured when the control group's median tumor volume reached approximately 800-1100 mm^3 (exponential growth phase); (d) percent difference in tumor volume (%T/C) at Day 21 (˜2000 mm^3) and (e) the number of tumor regression (smaller tumor volume at Day 21 (˜2000 mm^3) and (e) the number of tumor regression (smaller tumor volume on Day 28 compared to Day 1) per group.

P388/0 = test: Cytotoxicity assay, P388/0 cells (Alamar Blue); type: cell-based; settings: 37° C., 3 days incubation, duplicate, SD ±10%
Protocol: Cell Lines and Cytotoxicity Assays. Studies using P388/0 cell lines for IC50 (drug concentration inhibiting growth of cells by 50%) were maintained and conducted as previously reported. Briefly, for IC50 determination, cells were seeded into the microwell plates at a density […] per 50 μL per well. Plates were incubated at 37° C. in a humidified incubator with 5% CO2 for 3 days. Cell growth was measured by the addition of 10 μL/well of Alamar Blue (Alamar Biosciences, Inc., Sacramento, Calif.) and the plates were incubated a further 4 hours at 37° C. The IC50 values for each compound were determined from absorbance versus dilution factor plots. […] All cell lines were periodically tested for Mycoplasma and were Mycoplasma free.

## Nc1ccn([C@@H]2O[C@H](CO)[C@@H](O)[C@@H]2O)c(=O)n1 [Ara-C, ara-C]
[1]; total dose 80 mg/kg
  Complete Regression (#/Grp): 0/4
  Regression at Day 28 (#/Grp): 0/4
  T/C(%) at Day 14: 51.1%
  T/C (%) at Day 21: 52.2%
[1]; total dose 400 mg/kg
  Complete Regression (#/Grp): 0/6
  Regression at Day 28 (#/Grp): 1/6
  T/C(%) at Day 14: 16.7%
  T/C (%) at Day 21: 33.4%
P388/0
  IC50: 10 nM
